In US8367707B2, “Pest control agents” (Meiji Seika Pharma Co., Ltd., priority 2005, dated 2013):

Assays:
Helicoverpa armigera = test: Test Example 4: pesticidal effect against Helicoverpa armigera, cabbage leaf disk; format: in vivo; settings: 100 ppm; third instar larva on cabbage leaf disk; three days after treatment, 25° C.
Text: A cabbage leaf disk having a diameter of 2.8 cm was placed is in a plastic cup. Test compounds, which had been diluted to a predetermined concentration by the addition of a 50% aqueous acetone solution (Tween 20, 0.05% added), were spreaded over the cabbage leaf disk by means of a spray gun, and the cabbage leaf disk was then air dried. A larva at the third instar of Helicoverpa armigera was released in the cup. The cup was then lidded, and the larva was reared in the temperature-controlled room (25° C.). […] The test was repeated 5 times. Further, the death rate of the larvae were calculated in the same manner as in Test Example 1.

[1] = tested on: larvae of Helicoverpa zea; settings: Applied and Environmental Microbiology (1995), 61(12), 4429-35; cited from earlier work
[2] = tested on: Plutella xylostella L larvae; settings: WO 2004/060065; cited from earlier work
Tenebrio molitor L = settings: WO 2004/060065; cited from earlier work

Row | Compound | death rate of larvae (Helicoverpa armigera) | insecticidal activity against larvae of Helicoverpa zea [1] | insecticidal activity against Plutella xylostella L larvae [2] | insecticidal activity against Tenebrio molitor L (Tenebrio molitor L)
1 | CC1(COC(=O)C2CCC2)C(OC(=O)C2CCC2)CCC2(C)C1CC(OC(=O)C1CCC1)C1(C)Oc3cc(-c4cccnc4)oc(=O)c3C(O)C21 (stereo not shown) [Compound 219] | not less than 80% | – | – | –
2 | CC(=O)OCC1(C)C(OC(C)=O)CCC2(C)C1CC(OC(C)=O)C1(C)Oc3cc(-c4cccnc4)oc(=O)c3C(O)C21 (stereo not shown) [pyripyropene A] | – | insecticidal activity | insecticidal activity | insecticidal activity
